The values below come from ChEMBL document CHEMBL3880421, “Indazole compounds and pharmaceutical compositions for inhibiting protein kinases, and methods for their use” (2003).

A short description of the test: Antiproliferative activity against VEGF-stimulated HUVEC cells assessed as reduction in cell viability at 10 nM preincubated for 1 hr followed by addition of VEGF measured after 72 hrs by MTT assay. It is filed as functional. As to conditions: Homo sapiens. On the technique in general: Tetrazolium assays rely on reduction of a dye to a coloured formazan, in cell work by metabolically active cells.

In the case of `CN1CC(C(=O)Nc2cccc(Nc3ccc4c(/C=C/c5ccccc5)n[nH]c4c3)c2)CC1=O` (stereo not drawn), the inhibition at 0.01 µM is 20%. Turning to `CN1CC(C(=O)Nc2cccc(Oc3ccc4c(/C=C/c5ccccc5)n[nH]c4c3)c2)CC1=O` (stereo not drawn), the inhibition at 0.01 µM is 24%. For `CN(C)C(=S)SCC(=O)Nc1cccc(Oc2ccc3c(/C=C/c4ccccc4)n[nH]c3c2)c1`, the inhibition at 0.01 µM was 70%.

Regarding `O=C(Nc1cccc(Nc2ccc3c(/C=C/c4ccccc4)n[nH]c3c2)c1)C1CCOC1` (stereo not drawn), the inhibition at 0.01 µM is -3%.

Consider `O=C(Cc1cc(F)ccc1F)Nc1cccc(C(=O)c2ccc3c(/C=C/c4ccccc4)n[nH]c3c2)c1`, for which the inhibition at 0.01 µM turned out to be 80%. For the compound `O=C(Nc1cccc(Oc2ccc3c(/C=C/c4ccccc4)n[nH]c3c2)c1)c1cc(=O)cco1`, the inhibition at 0.01 µM was found to be 18%. `Cc1cc(C(=O)Nc2cccc(Nc3ccc4c(/C=C/c5ccccc5)n[nH]c4c3)c2)n[nH]1`: the inhibition at 0.01 µM stood at 86%.

For the compound `O=C(Nc1cccc(Nc2ccc3c(/C=C/c4ccccc4)n[nH]c3c2)c1)C1CCCO1` (stereo not drawn), the inhibition at 0.01 µM amounted to 23%. Consider `O=C(Nc1cccc(Oc2ccc3c(/C=C/c4ccccc4)n[nH]c3c2)c1)C1CC2C=CCC(C2)C1` (stereo not drawn), for which the inhibition at 0.01 µM came out at 17%. Consider `O=C(CCN1CCCCC1)Nc1cccc(C(=O)c2ccc3c(/C=C/c4ccccc4)n[nH]c3c2)c1`, for which the inhibition at 0.01 µM is 2%. As for `O=C(Nc1cccc(Oc2ccc3c(/C=C/c4ccccc4)n[nH]c3c2)c1)C1CCCO1` (stereo not drawn), the figure is 51%; as for `O=C1NCC(C(=O)Nc2cccc(Oc3ccc4c(/C=C/c5ccccc5)n[nH]c4c3)c2)N1` (stereo not drawn), 40%; as for `O=C(Nc1cccc(Nc2ccc3c(/C=C/c4ccccc4)n[nH]c3c2)c1)c1cccc2[nH]ccc12`, 94%. Regarding `CC(=O)N1CCC(C(=O)Nc2cccc(C(=O)c3ccc4c(/C=C/c5ccccc5)n[nH]c4c3)c2)CC1`, the inhibition at 0.01 µM stood at 33%. As for `O=C(/C=C/C1C[C@H]2C=C[C@H]1C2)Nc1cccc(C(=O)c2ccc3c(/C=C/c4ccccc4)n[nH]c3c2)c1` (stereo partly drawn), the inhibition at 0.01 µM was 37%.

As for `Cc1cc(C(=O)Nc2cccc(C(=O)c3ccc4c(/C=C/c5ccccc5)n[nH]c4c3)c2)oc(=O)c1`, the inhibition at 0.01 µM worked out at 64%. Turning to `O=C(Cc1cccnc1)Nc1cccc(C(=O)c2ccc3c(/C=C/c4ccccc4)n[nH]c3c2)c1`, the inhibition at 0.01 µM turned out to be 21%. As for `O=C1CC[C@H](C(=O)Nc2cccc(Nc3ccc4c(/C=C/c5ccccc5)n[nH]c4c3)c2)N1`, the figure is 20%; as for `CC(=O)c1ccc(C(=O)Nc2cccc(Nc3ccc4c(/C=C/c5ccccc5)n[nH]c4c3)c2)s1`, 78%. For `COc1ccccc1/C=C/C(=O)Nc1cccc(C(=O)c2ccc3c(/C=C/c4ccccc4)n[nH]c3c2)c1` the value was 47%. Take `CC1CC1C(=O)Nc1cccc(C(=O)c2ccc3c(/C=C/c4ccccc4)n[nH]c3c2)c1` (stereo not drawn): the inhibition at 0.01 µM turned out to be 96%. `CC1(C)OC(=O)[C@H](CC(=O)Nc2cccc(Nc3ccc4c(/C=C/c5ccccc5)n[nH]c4c3)c2)O1`: the inhibition at 0.01 µM worked out at 20%. For `CN1CCC=C(C(=O)Nc2cccc(Oc3ccc4c(/C=C/c5ccccc5)n[nH]c4c3)c2)C1` the value was 43%; for `O=C(/C=C/C(=O)Nc1cccc(C(=O)c2ccc3c(/C=C/c4ccccc4)n[nH]c3c2)c1)NCC1CC1`, 3%; for `O=C1CC[C@H](C(=O)Nc2cccc(Oc3ccc4c(/C=C/c5ccccc5)n[nH]c4c3)c2)N1`, 32%. Turning to `CC1(C)OC(=O)CC1C(=O)Nc1cccc(Nc2ccc3c(/C=C/c4ccccc4)n[nH]c3c2)c1` (stereo not drawn), the inhibition at 0.01 µM was found to be 16%. With `CC(=O)NC(C)(C)CC(=O)Nc1cccc(C(=O)c2ccc3c(/C=C/c4ccccc4)n[nH]c3c2)c1`, the inhibition at 0.01 µM stood at 35%. `O=C(Nc1cccc(Nc2ccc3c(/C=C/c4ccccc4)n[nH]c3c2)c1)c1cc(=O)cco1`: the inhibition at 0.01 µM was 17%.

As to `CO[C@H](C(=O)Nc1cccc(Nc2ccc3c(/C=C/c4ccccc4)n[nH]c3c2)c1)c1ccccc1`, the inhibition at 0.01 µM is 80%. For `Cc1cc(C(=O)Nc2cccc(Nc3ccc4c(/C=C/c5ccccc5)n[nH]c4c3)c2)c(C)[nH]1`, the inhibition at 0.01 µM was 76%. As for `CC(C)(C)c1ccc(C(=O)Nc2cccc(Nc3ccc4c(/C=C/c5ccccc5)n[nH]c4c3)c2)o1`, the figure is 60%.

Regarding `CCO/C(C)=C/C(=O)Nc1cccc(Oc2ccc3c(/C=C/c4ccccc4)n[nH]c3c2)c1`, the inhibition at 0.01 µM is 87%. In the case of `O=C(CC1=CCCCC1)Nc1cccc(Nc2ccc3c(/C=C/c4ccccc4)n[nH]c3c2)c1`, the inhibition at 0.01 µM was found to be 81%. Turning to `O=C(Nc1cccc(Oc2ccc3c(/C=C/c4ccccc4)n[nH]c3c2)c1)C1=C[C@@H](O)[C@@H](O)[C@H](O)C1`, the inhibition at 0.01 µM was determined as 25%. For `O=C(/C=C/C(=O)Nc1cccc(Oc2ccc3c(/C=C/c4ccccc4)n[nH]c3c2)c1)NCC1CC1`, the inhibition at 0.01 µM was found to be 36%. In the case of `O=C(Cc1cccnc1)Nc1cccc(Nc2ccc3c(/C=C/c4ccccc4)n[nH]c3c2)c1`, the inhibition at 0.01 µM is 43%.

For the compound `Cc1cc(C(=O)Nc2cccc(Oc3ccc4c(/C=C/c5ccccc5)n[nH]c4c3)c2)oc(=O)c1`, the inhibition at 0.01 µM was found to be 83%. As for `O=C(Cc1cc(F)cc(F)c1)Nc1cccc(Nc2ccc3c(/C=C/c4ccccc4)n[nH]c3c2)c1`, the figure is 77%; as for `COc1cccc(CC(=O)Nc2cccc(C(=O)c3ccc4c(/C=C/c5ccccc5)n[nH]c4c3)c2)c1`, 87%. Turning to `CO[C@H](C(=O)Nc1cccc(Oc2ccc3c(/C=C/c4ccccc4)n[nH]c3c2)c1)c1ccccc1`, the inhibition at 0.01 µM was found to be 30%. As for `O=C(Cc1c(F)cccc1F)Nc1cccc(Oc2ccc3c(/C=C/c4ccccc4)n[nH]c3c2)c1`, the figure is 93%; as for `CC(C)[C@@H](O)C(=O)Nc1cccc(Nc2ccc3c(/C=C/c4ccccc4)n[nH]c3c2)c1`, 3%; as for `C/C(=C\C(=O)Nc1cccc(C(=O)c2ccc3c(/C=C/c4ccccc4)n[nH]c3c2)c1)c1ccccc1C`, 99%. As for `O=C(CC1CC2CCC1C2)Nc1cccc(Nc2ccc3c(/C=C/c4ccccc4)n[nH]c3c2)c1` (stereo not drawn), the figure is 87%.

`O=C1C[C@H](C(=O)Nc2cccc(Nc3ccc4c(/C=C/c5ccccc5)n[nH]c4c3)c2)NC(=O)N1`: the inhibition at 0.01 µM came to 17%.

For the compound `O=C(Nc1cccc(Oc2ccc3c(/C=C/c4ccccc4)n[nH]c3c2)c1)C1CCOC1` (stereo not drawn), the inhibition at 0.01 µM turned out to be 40%. For `COc1cccc(CC(=O)Nc2cccc(Nc3ccc4c(/C=C/c5ccccc5)n[nH]c4c3)c2)c1` the value was 34%. For `O=C1CCC(C(=O)Nc2cccc(Nc3ccc4c(/C=C/c5ccccc5)n[nH]c4c3)c2)CC1` the value was -7%; for `CC(C)=CC1C(C(=O)Nc2cccc(C(=O)c3ccc4c(/C=C/c5ccccc5)n[nH]c4c3)c2)C1(C)C` (stereo not drawn), 3%; for `CC(C)=CC1C(C(=O)Nc2cccc(Oc3ccc4c(/C=C/c5ccccc5)n[nH]c4c3)c2)C1(C)C` (stereo not drawn), 24%. As for `O=C(CC1CC2CCC1C2)Nc1cccc(C(=O)c2ccc3c(/C=C/c4ccccc4)n[nH]c3c2)c1` (stereo not drawn), the figure is 75%. For the compound `O=C(CCC(=O)N1CCCC1)Nc1cccc(Nc2ccc3c(/C=C/c4ccccc4)n[nH]c3c2)c1`, the inhibition at 0.01 µM is -8%.

With `O=C(CC1=CCCCC1)Nc1cccc(Oc2ccc3c(/C=C/c4ccccc4)n[nH]c3c2)c1`, the inhibition at 0.01 µM was found to be 92%. As for `O=C(Cn1ccc2ccccc21)Nc1cccc(Oc2ccc3c(/C=C/c4ccccc4)n[nH]c3c2)c1`, the figure is 52%; as for `CC(=O)N1CCCC1C(=O)Nc1cccc(Nc2ccc3c(/C=C/c4ccccc4)n[nH]c3c2)c1` (stereo not drawn), -2%; as for `CC(C)CC(=O)C(=O)Nc1cccc(Oc2ccc3c(/C=C/c4ccccc4)n[nH]c3c2)c1`, 64%. For `O=C(Nc1cccc(Nc2ccc3c(/C=C/c4ccccc4)n[nH]c3c2)c1)C1CC2CC(O)C1C2` (stereo not drawn), the inhibition at 0.01 µM was -20%. As to `CC(=O)N1CCCC1C(=O)Nc1cccc(C(=O)c2ccc3c(/C=C/c4ccccc4)n[nH]c3c2)c1` (stereo not drawn), the inhibition at 0.01 µM worked out at 10%. For `CC1(C)OC(=O)[C@H](CC(=O)Nc2cccc(C(=O)c3ccc4c(/C=C/c5ccccc5)n[nH]c4c3)c2)O1` the value was 19%; for `Cc1ccc(CCC(=O)Nc2cccc(C(=O)c3ccc4c(/C=C/c5ccccc5)n[nH]c4c3)c2)cc1`, 57%. For the compound `O=C1CC[C@H](C(=O)Nc2cccc(C(=O)c3ccc4c(/C=C/c5ccccc5)n[nH]c4c3)c2)N1`, the inhibition at 0.01 µM worked out at 32%. On to `O=C(c1cccc(NC(=O)C2CC3C=CCC(C3)C2)c1)c1ccc2c(/C=C/c3ccccc3)n[nH]c2c1` (stereo not drawn), for which the inhibition at 0.01 µM stood at 56%. For `C[C@@H](CC(=O)Nc1cccc(Oc2ccc3c(/C=C/c4ccccc4)n[nH]c3c2)c1)c1ccccc1` the value was 42%; for `O=C(Cc1c(F)cccc1F)Nc1cccc(Nc2ccc3c(/C=C/c4ccccc4)n[nH]c3c2)c1`, 40%. Turning to `Cc1ccc(CCC(=O)Nc2cccc(Nc3ccc4c(/C=C/c5ccccc5)n[nH]c4c3)c2)cc1`, the inhibition at 0.01 µM was 29%. As to `CN1CSCCC1C(=O)Nc1cccc(Nc2ccc3c(/C=C/c4ccccc4)n[nH]c3c2)c1` (stereo not drawn), the inhibition at 0.01 µM came out at 0%.

Turning to `CC(C)CC(=O)C(=O)Nc1cccc(Nc2ccc3c(/C=C/c4ccccc4)n[nH]c3c2)c1`, the inhibition at 0.01 µM worked out at 11%. In the case of `O=C(/C=C/C(=O)Nc1cccc(Nc2ccc3c(/C=C/c4ccccc4)n[nH]c3c2)c1)NCC1CC1`, the inhibition at 0.01 µM turned out to be 13%. Take `O=C(Nc1cccc(Oc2ccc3c(/C=C/c4ccccc4)n[nH]c3c2)c1)C1C[C@H]2C[C@@H]1CCC2O` (stereo partly drawn): the inhibition at 0.01 µM stood at 52%. Turning to `O=C(Nc1cccc(Oc2ccc3c(/C=C/c4ccccc4)n[nH]c3c2)c1)C1CC2C=CC1CC2` (stereo not drawn), the inhibition at 0.01 µM is 13%.

`Cc1nc(S)sc1CC(=O)Nc1cccc(C(=O)c2ccc3c(/C=C/c4ccccc4)n[nH]c3c2)c1`: the inhibition at 0.01 µM came to 24%. With `CN1CCC=C(C(=O)Nc2cccc(C(=O)c3ccc4c(/C=C/c5ccccc5)n[nH]c4c3)c2)C1`, the inhibition at 0.01 µM turned out to be 20%. As for `CCNc1ccccc1C(=O)Nc1cccc(Nc2ccc3c(/C=C/c4ccccc4)n[nH]c3c2)c1`, the figure is 71%.

Usually inhibition stands for the relative decrease from the control value, in per cent.
